Experimental data as given in patent US8895599B2, “Lipoprotein lipase-activating compositions comprising benzene derivates” (Otsuka Pharmaceutical Factory, Inc., priority 2008, dated 2014).

Legend:
[1] = Therapeutical effect on olive oil-induced triglyceride hyperlipidemia models; format: in vivo; details: once a day for one week, SD rats, 2 h after olive oil
Procedure: Test of Therapeutical Effect on Olive Oil-Induced Triglyceride Hyperlipidemia Models
To conduct this test, 6-week-old SD rats (purchased from Charles River Japan) were used.
According to the body weight of the test rats when they were 5 weeks old, the test rats were divided into test groups and a control group with 6 rats per group.
A predetermined amount of each compound prepared in the Examples was measured and placed in an agate mortar. While 5% aqueous gum arabic solution was gradually introduced to the mortar, the compound was uniformly ground and suspended. Test samples were prepared by further adding 5% aqueous gum arabic solution gradually. Subsequently, these test samples were subjected to ultrasonic washing for 10 minutes to homogenize. Test samples were prepared as and when necessary.
The rats of the test groups were orally administered with the compounds of the invention such that rats received the compounds in an amount of 10, 30, or 100 mg/kg. The compounds of the invention were formulated as 5% gum arabic suspensions as described above.
The rats of the control group were orally administered with 5% aqueous gum arabic solution (not containing the compounds of the invention) in an amount of 5 ml/kg body weight. Administration was conducted once a day continuously for one week at a specific time of day after the rats reached 6 weeks of age. This test was performed under non-fasting conditions (rats had free access to feed and water), and the rats were fasted after the final administration of the compounds or 5% aqueous gum arabic solution.
Two hours after the final administration, olive oil was orally administered to the rats from both groups in an amount of 3 ml/kg body weight.
Two hours after the olive oil administration, blood was collected from the abdominal aorta of the rats of the respective groups using a heparinized syringe. The plasma was centrifugally separated from the blood at a temperature of 4° C., and the triglyceride level of the plasma was measured. A Hitachi 7170 automatic analyzer was used as the measuring instrument. Using the values measured from the test groups and control group, the decrease (%) in plasma triglyceride level was calculated according to the following equation: Decrease (%) in plasma triglyceride concentration=(1−E/C)×100 wherein E represents the average plasma triglyceride level in each test group; and C represents the average plasma triglyceride level in the control group.

[2] = Anti-obesity test using Zucker fatty rats; format: in vivo; details: 100 mg/kg oral, once a day over 4 weeks, relative to control group
From the text: Anti-Obesity Test Using Zucker Fatty Rats
Zucker fatty rats are obese rats discovered by Zucker et al., in 1961 as mutants among 13 M rats, which are a hybrid between 13C and M rats. These rats (fa/fa) start to appear distinctly obese from normal broods around the age of 3 weeks. As they age, the weight difference between the fatty rats and normal rats increases. Zucker fatty rats are currently kept by a variety of organizations as simple obesity models, and are readily obtainable.
This test was performed using this rat model to evaluate the anti-obesity action of the compounds of the invention. The preparation method of test samples and the test procedures are described below:
The test samples were prepared in the same manner as in Test Example 2.
Zucker fatty rats and lean rats (both from Charles River Japan) were purchased at the age of 5 weeks. They were divided into groups (10 rats per group) according to body weight when they reached 6 weeks old. After acclimatization, the administration of test samples was initiated when the rats reached 8 weeks old. Test samples were orally administered using an oral gavage so that the compounds of the invention contained in the test samples were given in an amount of 100 mg/kg body weight (test sample dosage: 5 ml/kg body weight). The test samples were administered once a day over 4 weeks at a specific time of day.
As a control, a group of rats were administered with the same amount of 5% aqueous gum arabic solution (5 ml/kg body weight) instead of the test samples.
The rats of all groups were weighed on the last day of administration. The average body weight of the rats of each test group was compared with the average body weight (standard weight) of the rats of the control group to obtain the weight variations (differences). The weight differences were expressed as percentages in relation to the standard weight. The values thus calculated are referred to as “weight change %”. When a weight difference is negative relative to the standard weight, weight change % is shown with “−” (minus).
During the test period, the rats of the respective groups had free access to rat feed (“CRF-1”, manufactured by Oriental Yeast, Co., Ltd.) and water (tap water).

[3] = tested on: LPL; assay: Test for LPL activity-increasing effect in normal rats (skeletal muscle LPL activity); format: in vivo; details: every day for 1 week, SD rats, soleus muscle, 4 h after administration
Procedure: Test for LPL Activity-Increasing Effect in Normal Rats
6-week-old SD rats (purchased from Charles River Japan) were used as subjects. The rats were divided into groups according to body weight at the age of 5 weeks. The rats in each test group were orally administered with a 5% gum arabic suspension in an amount of 5 ml/kg of body weight, the suspension containing the test compound of the invention in such an amount that the dose of the compound of the invention became 30 mg/kg of body weight in one group and 100 mg/kg of body weight in another group. The rats in a control group were orally administered with a 5% gum arabic suspension (not containing the test compound of the invention) in an amount of 5 ml/kg of body weight. Each sample suspension was orally administered every day at a specific time of day for 1 week starting when the rats reached the age of 6 weeks.
Four hours after the administration of the sample suspension, skeletal muscle tissues of the rats were collected, then freeze-clamped and stored under liquid nitrogen. LPL activity in the skeletal muscle tissues was measured by the following method.
The soleus muscle was homogenized in a chilled solution of 0.05 mol/L NH4OH—NH4Cl buffer (pH 8.5) containing 0.5 U/mL heparin at 1 mL/100 mg of tissue wet weight. After standing on ice for 60 min with vigorous mixing at intervals of 15 min, the homogenate was centrifuged at 3000 rpm and 4° C. for 10 min and the supernatant was separated.
The substrate solution was prepared by mixing 2 μCi of glycerol tri[1-^14C]oleate, 0.133 g of unlabeled triolein, 0.9 mL of 1% Triton X-100, and 0.9 mL of 4% bovine serum albumin. in 0.2 mol/L Tris-HCl buffer (pH 8.6) and 10.2 mL of 0.2 mol/L Tris-HCl buffer (pH 8.6). The mixture was emulsified by sonication on ice for 3 min.
In a glass test tube, 0.1 mL of the tissue extract, 0.05 mL of heat-inactivated rat serum and 0.15 mL of 4% bovine serum albumin in 0.2 mol/L Tris-HCl buffer (pH 7.4) were mixed. Enzyme reaction was started by adding 0.2 mL of the substrate solution and was carried out for 30 min. at 37° C.
The reaction was stopped by addition of 2 mL of 1.5 mol/L H2SO4/2-propanol (1:40, v/v), and 1 mL of distilled water and 3 mL of hexane were added into the test tube. After vigorously shaking for 10 min. at room temperature, the test tube was centrifuged for 10 min. at 3000 rpm.
The upper layer (3.5 mL) was collected in a new test tube and mixed with 1 mL of 0.1 mol/L KOH.
The test tube was vigorously shaken for 10 min. at room temperature and then centrifuged for 10 min. at 3000 rpm.
After removing the upper layer, 1 mL of the lower layer (water phase) was transferred into a vial for counting, neutralized with 50 μL of 1.3 mol/L HCl and mixed with 4 mL of scintillator. The radioactivity was measured using a liquid scintillation counter.
The LPL activity increase (%) was calculated from the measured values of LPL activity in the control group and test groups according to the following formula: LPL activity increase (%)=(Test group average value)/(Control group average value)×100−100

[4] = tested on: human LPL mRNA; assay: Test for increase in LPL mRNA expression (luciferase assay, HTB-92/p387/p383 cell line); format: cell-based; details: 120 h, HTB-92/p387/p383 cells, 5 days
From the text: Pharmacological Test 1 Test for Increase in LPL mRNA Expression
A luciferase assay was employed to simply and quickly detect an increase in human LPL mRNA. The principle of the assay is as follows:
Luciferase emits light when reacted with luciferine (substrate). The expression of LPL mRNA is controlled by 5′-UTR and 3′-UTR (promoter regions) of the LPL gene. By introducing the promoter regions of the LPL gene into a commercially available plasmid (for example, that produced by Clonetics Corp.) to produce a plasmid (reporter plasmid) that stably expresses luciferase in human cells, such a plasmid expresses luciferase only under conditions in which LPL mRNA can increase. Therefore, when the substrate is introduced to the expression system and the amount of luciferase expression (luciferase activity) is quantified as the extent of chemiluminescence, the amount of LPL mRNA expression can be estimated.
The test herein was performed as follows: Using a plasmid for the luciferase assay manufactured by Clontech, wherein human LPL 5′-UTR (Enerback, S., et al., Mol. Cell. Biol. 12 (10) (1992): 4622-4633) and 3′-UTR (Wion, K. L., et al., Science 235 (1987): 4796, 1638-1641) had been inserted, human-derived liposarcoma cell line SW872 (ATCC Accession No. HTB-92) was transformed to prepare an HTB-92/p387/p383 cell line, which stably expresses luciferase.
This HTB-92/p387/p383 cell line was introduced into a 225 cm^2 culture flask furnished with a culture medium and cultured at 37° C. in the absence of CO2 until reaching confluence. Leibovitz's L-15 culture medium (containing 10% FBS, 1% GlutaMaxII, 10 μg/ml streptomycin, 1 μg/ml puromycin, 250 μg/ml hygromycin B) was used as the culture medium. After reaching confluence, the cells were collected, plated on 384-well plates to have 20000 cells/well, and cultured with 50 μl/well of the culture medium under the same conditions as above (37° C., absence of CO2). After 3 days of culturing, the culture medium was replaced by 50 μl/well phenol-red-free DMEM (containing 10% FBS, 1% GlutaMax, 10 U/ml penicillin, 10 μg/ml streptomycin, 1 μg/ml puromycin, 250 μg/ml hygromycin, 1 μM dexamethasone, 0.5 μM IBMX; differentiation medium), and the cells were cultured for 5 more days at 37° C. in the presence of CO2 to differentiate.
Furthermore, the culture medium was replaced by a 50 μl/well medium containing a compound of the invention (compound prepared in an Example) as a test substance wherein the compound had been conditioned with DMSO to a specific concentration selected from 10^−4 M to 3×10^−10M. The cells were cultured for 5 days at 37° C. in the presence of CO2.
After 5 days of culturing, a luciferase substrate solution (manufactured by Promega Corporation) was introduced to each well in an amount of 30 μl/well. The cells were left to stand 10 minutes at room temperature, and luciferase activities were measured by a luminometer (a microplate scintilltion counter; The Wallac MicroBeta Trilux, manufactured by Perkin Elmer, Inc.).
Cells that had been cultured and differentiated in a differentiation medium prepared by adding 0.1% DMSO to the above-mentioned DMEM medium (differentiation medium) not containing phenol red were used as a control (i.e., cultured and differentiated for 5 days and then stimulated for 5 days). The luciferase activity of these control cells were measured as above. The EC50 value (the concentration of test substance that can increase the amount of LPL mRNA expression over the control by 50%, unit: M) was calculated based on the straight line obtained by plotting the results of the tests performed using the test substances at varying concentrations. The maximum induction (Max. Ind. values) was calculated according to the following equation: Max. Ind. Value=Lt/Lc wherein Lt represents the maximum luciferase activity occurred in response to test substance stimulation; and Lc represents the value indicating the luciferase activity of the control.

SMILES	Decrease in plasma triglyceride level (%) ([1]; 10 mg/kg oral)	Decrease in plasma triglyceride level (%) ([1]; 30 mg/kg oral)	Decrease in plasma triglyceride level (%) ([1]; 100 mg/kg oral)	Weight Change (%) [2]	Increase of skeletal muscle LPL activity compared to control (%) ([3]; 30 mg/kg oral)	Increase of skeletal muscle LPL activity compared to control (%) ([3]; 100 mg/kg oral)	melting point	maximal fold induction ([4]; Max. Ind. Value=Lt/Lc, maximum luciferase activity over control)	EC50 ([4]; concentration that increases LPL mRNA expression over the control by 50%)
COc1cc(-c2c[nH]c(-c3ccc(C(F)(F)F)cc3)n2)ccc1OCc1ccccc1.Cl [Example 95, 4-(4-benzyloxy-3-methoxyphenyl)-2-(4-trifluoromethylphenyl)imidazole]	28%	65%	81%	−15%	13%	25%	247 to 249 °C	–	–
COc1cc(-c2cn3ccccc3n2)ccc1OCc1ccccc1 [Example 1, 2-(4-benzyloxy-3-methoxyphenyl)imidazo[1,2-a]pyridine]	26%	50%	76%	−8%	–	–	128 to 129.5 °C	3	6.3 µM
